Source: US10653691B2, “Method of promoting remyelination” (Case Western Reserve University, priority 2013, dated 2020)

Experiments:
[1] = system: ERK1/2; experiment: Western blot of ERK1/2 phosphorylation in mouse fibroblasts; type: cell-based; conditions: non-neural cell type, treated for 1 h
[2] = system: EpiSC-derived OPCs; experiment: Dose-response testing of drug hits (percent PLP1+ oligodendrocytes, cytotoxicity); type: cell-based, mouse; conditions: seven point dose response; seen only at the highest 6.7 μM dose
Text: Dose-response testing of drug hits followed the same procedure with the following modifications to eliminate any artefacts in the primary screen: independently sourced drugs; a distinct batch of EpiSC-derived OPCs from a mouse of opposite sex; multi-dose testing; cytotoxicity analysis; an alternative marker of mature oligodendrocytes proteolipid protein 1 (PLP1, antibody clone AA3 provided by B. Trapp; 1:5,000); and an alternative high content assay endpoint parameter (percentage of oligodendrocytes differentiated instead of process intensity and length parameters). […]
For the 5 μM in vitro screen, stained plates were imaged on the Opera confocal imaging system (PerkinElmer) and a set of 24×10 fields were collected from each well, resulting in an average of 10,000 cells being scored per well. For the dose-response (6.7 μM, 5 μM, 3.3 μM, 1.7 μM, 666 nM, 500 nM, and 333 nM) in vitro assays, plates were imaged on the Operetta High Content Imaging and Analysis system (PerkinElmer) and a set of 14×20 fields captured from each well resulting in an average of 3,300 cells being scored per well. […] Each traced nucleus region was then expanded by 50% and cross-referenced with the mature myelin protein (MBP or PLP1) stain to identify oligodendrocyte nuclei, and from this the percentage of oligodendrocytes was calculated. […]

[3] = system: mouse OPCs; experiment: Global phosphoproteomics of drug-treated OPCs; type: cell-based; conditions: 1 and 5 h after treatment
Experimental: Briefly, for each sample 30 million cells were lysed with 2% SDS solution with protease and phosphatase inhibitor (Thermo Fisher), and detergent was removed on 200 μl of the cell lysate using the FASP cleaning procedure. Each sample was digested by a two-step Lys-C/trypsin proteolytic cleavage and subjected to phospho-enrichment using a commercially available TiO2 enrichment spin tips (Thermo Fisher). LC-MS/MS analysis used a UPLC system (NanoAcquity, Waters) that was interfaced to an Orbitrap ProVelos Elite MS system (Thermo Fisher). Fold-change calculations were determined from peptide intensities for each drug versus DMSO at each time point. Phosphopeptides with greater than twofold change were imported into Ingenuity Pathway Analysis to elucidate signalling pathways perturbed with drug treatment.

[4] = system: mouse OPCs; experiment: RNA sequencing of drug-treated OPCs; type: cell-based; conditions: 2, 6 or 12 h of drug treatment
Experimental: Cells were lysed directly in 1 ml TRIzol (Invitrogen) and stored at −80° C. Once all samples were collected, samples were thawed on ice and separated with chloroform using Phase Lock Gel tubes (5 PRIME). RNA was isolated using the miRNeasy PlusMini Kit (Qiagen) according to the manufacturer's protocol. One microgram of each sample was then poly-A selected, fragmented, and library prepared using the TruSeqRNA Sample Prep Kit (Illumina) according to the manufacturer's protocol. Samples were indexed using TruSeq adapters. One hundred base-pair paired-end reads were generated for each sample on an Illumina HiSeq 2500 instrument at the Case Western Reserve University Genomics Core facility. Between 5 million and 13 million reads were generated per sample for drug time course experiments. […] EpiSCs, EpiSC OPCs, and in vivo OPCs were sequenced to depths of 51,271,458 reads, 61,072,460 reads, and 62,530,709 reads, respectively. […]
Reference genome files were retrieved from Illumina iGenomes. Reads were aligned to the mm9 genome using Tophat version 2.0.8 with default settings. Expression values of known RefSeq genes were calculated in units of fragments per kilobase per million reads (FPKM) using Cufflinks version 2.0.2. […] The collective list of changed genes for each drug was evaluated with Ingenuity Pathway Analysis (application build 261899, content version 18030641).

[5] = system: glucocorticoid receptor; experiment: Western blot of glucocorticoid receptor phosphorylation at Ser220 in OPCs; type: cell-based, mouse; conditions: OPCs treated for 1 h
Experimental: EpiSC-derived OPCs were seeded into poly-Lornithine/laminin coated six-well plates and allowed to attach for 2 h in DMEM/F12 without additional factors. Cells were treated with indicated inhibitors or DMSO for 1 h-SCH772984 (ChemieTek, 1 mM), SB590885 (Tocris, 10 nM), LY294002 (Tocris, 10 μM), and PD0325901 (Stemgent, 1 μM). Cells were then stimulated with drug or FGF2 (R&DSystems; 20 ng ml^−1) for 1 h and then lysed in 200 μL RIPA buffer (0.15 M NaCl, 0.05M Tris, pH=8.0, 1 mM EDTA, 1% Triton X-100, 0.1% SDS, 10% glycerol, HALT protease and phosphatase inhibitor (Thermo Fisher) added just before use) and incubated on ice for 20 min. Lysates were centrifuged at 4° C. and supernatant collected. Protein concentrations were determined by Pierce BCA protein assay kit (Thermo Fisher). […] Blots were blocked in either 5% BSA (phosphoprotein) or 5% milk (non phosphoprotein).

[6] = mice, intraperitoneal
Experimental: After 1 or 6 h, […] of plasma was collected then each animal was perfused with PBS. Brains were collected, weighed, and rinsed with PBS. Water (0.5 ml) was added to the brain samples, which were then homogenized. Plasma and brain samples were each diluted fivefold with blank rat plasma. Three hundred microlitres of internal standard solution was added to the samples, vortexed, and centrifuged. Five microlitres of each sample was injected into an API-4000Qtrap mass spectrometer and quantified (Climax Labs).

[7] = system: naive CD4+ T cells; experiment: Naive CD4+ T-cell assays; type: cell-based, mouse; conditions: Th1 or Th17 driving conditions, 4 days
Experimental: Naive CD4+ T cells (CD4+L-selectin^hi cells) were purified using AutoMacs Magnetic Bead cell separation technology (Miltenyi Biotech) from total lymph node cells isolated from unprimed mice with purity ranging from 98 to 99.9%. For in vitro activation, 5×10^5 naive CD4^+ T cells were activated in the presence of plate-bound anti CD3 (1 μgml^−1) plus Th1—(200 U ml^−1 interleukin-2 (IL-2), 40 U ml^−1 IL-12, 10 μgml^−1 anti-IL-4) or Th17—([…], 50 ng ml^−1 IL-6, 1 μgml^−1 anti-IFN-γ, 1 μgml^−1 anti-IL-4, 1 μgml^−1 anti-IL-2) promoting conditions. On day 4, the cultured T cells were collected and the percentage of viable cytokine positive cells assessed by flow cytometry. The cells were stained with a LIVE/DEAD Fixable Violet Dead Cell Stain Kit, for 405 nm excitation (Life Technologies), anti CD4-APC/Cy7 (clone RM4-5), anti-IFN-γ-PerCP/Cy5.5 (clone XMG1.2), and anti-IL-17-APC (clone eBio17B7) (eBioscience). Viable cells (5×10^5) were analysed per individual sample using a BD Canto II cytometer (BD Biosciences), and the data were analysed using FloJo version 9.5.2 software (Tree Star).

Structure (SMILES) | ERK1/2 phosphorylation in mouse fibroblasts [1] | toxicity and decrease in PLP1 positive cells in dose response [2] | pathways affected in phosphoproteomic analysis [3] | modulation of gene expression [4] | phosphorylation of glucocorticoid receptor at Ser220 [5] | crossing of the blood-brain barrier [6] | naive T-cell differentiation [7]
Clc1ccc(COC(Cn2ccnc2)c2ccc(Cl)cc2Cl)c(Cl)c1 (stereo not shown) [miconazole] | no increase of ERK1/2 phosphorylation | Slight toxicity and a decrease in PLP1 positive cells | proteins in the mitogen-activated protein (MAP) kinase pathway were most strongly affected | – | – | – | –
C[C@H]1C[C@H]2[C@@H]3CCC4=CC(=O)C=C[C@]4(C)[C@@]3(F)[C@@H](O)C[C@]2(C)[C@@]1(O)C(=O)CCl [clobetasol] | – | – | – | potently modulated genes downstream of multiple nuclear hormone receptors | increased the phosphorylation of glucocorticoid receptor at Ser220 | readily crossed the blood-brain barrier | altered naïve T-cell differentiation
